Key:
[1] = system: rat brain and liver monoamine oxidase-A; assay: Monoamine oxidase-A inhibiting activity ex vivo; assay type: in vivo; settings: 5.75 μmol/kg, 5 hr, i.p. in 10% DMSO
Experimental: (§1) Radiolabelled 5-hydroxytryptamine was used as a substrate for monoamine oxidase-A. The compounds of interest were either injected intraperitonealy in DMSO or administered by gavage in water for various periods. The animals were killed by decapitation and the brains and livers immediately removed and frozen until assayed for monoamine oxidase-A activity. Tissues were homogenized and appropriately diluted in buffer prior to incubation. Incubations proceeded at 37° C. for 10 minutes. Incubation was terminated by the addition of acid and the radiolabelled product (5-hydroxyindoleacetaldehyde and 5-hydroxyindoleacetic acid) was extracted and quantified by liquid scintillation counting procedures. Incubations were done in triplicate and incubations containing phenelzine were included for comparison. The percent inhibition of monoamine oxidase-A activity compared to controls containing no drug was calculated.
Values are the mean ± the standard error based on (n) determinations.
Oral doses were administered as 75 μmol/kg on day 1, 75 μmol/kg on
day 2 and the animals were killed 5 hours later.

[2] = system: DSP-4 induced noradrenaline depletion in mouse hippocampus; assay: Prevention of DSP-4 induced noradrenaline depletion in mouse hippocampus; assay type: in vivo
Experimental: (§2) Neuroprotectant activity was evaluated by examining the prevention of DSP-4 induced noradrenaline depletion in mouse hippocampus as described in Yu, P. H., Davis, B. A., Fang, J. and Boulton, A. A. (1994), Neuroprotective effect of some monoamine oxidase-B inhibitors against DSP-4 induced noradrenaline depletion in the mouse hippocampus, J. Neurochem. 63: 1820-1828. Briefly, mice were injected (i.p.) with either 20% DMSO or potential neuroprotectants (10 mg/kg in 20% DMSO). One hour later they were injected with either water or DSP-4 (50 mg/kg in water). One week later the mice were killed and the brains removed and the hippocampus dissected out. The hippocampus was frozen and saved for estimation of noradrenaline and other aminergic neurotransmitters and their metabolites as in Sloley, B. D. and Goldberg J. I. (1991), Determination of γ-glutamyl conjugates of monoamines by means of high-performance liquid chromatography with electrochemical detection and application to gastropod tissues, J. Chromatog. 567: 49-56. The rest of the brain was frozen and retained for estimation of monoamine oxidase activities ex vivo as described earlier.

[3] = system: MAO-A; assay: MAO-A inhibition ex vivo in DSP-4 treated mice (brain); set-up: species or system mouse
Experimental: as §1, with “The compounds were evaluated for ex vivo monoamine oxidase-A inhibiting activity using the radiochemical procedure of Lyles, G. A. and Callingham, B. A. (1982). […] Biochem. Pharmacol. 31: 1417-1424. Radiolabelled” for “Radiolabelled”
as §2

[4] = system: DSP-4 induced noradrenaline depletion in mouse hippocampus; assay: Prevention of DSP-4 induced noradrenaline depletion in mouse hippocampus; assay type: in vivo; settings: 10 mg/kg then DSP-4 50 mg/kg; saline control experiment
[5] = system: NA, DA, 5-HT, 5-HIAA and DOPAC concentrations in rat hypothalamus; assay: Rat hypothalamus amine and amine metabolite concentrations; assay type: in vivo; settings: 5.75 μmol/kg, 5 hr, ip
Experimental: The effects of various doses of CVT-P040 on the concentrations of hypothalamus amine neurotransmitters and their metabolites were evaluated by examining concentrations of noradrenaline (NA), dopamine (DA), 5-hydroxytryptamine (5-HT), 5-hydroxyindoleacetic acid (5-HIAA) and 3,4-dihydroxyphenylacetic acid (DOPAC) in rat hypothalami 5 hours after the injection of the drug. […] The brains were removed and divided in half. One half of the brain was frozen in isopentane on dry ice and retained for estimates of amino acid neurotransmitter concentrations. The other half had the hypothalamus removed and frozen on dry ice for later estimates of amines and their metabolites according to the method of Sloley, B. D. and Goldberg J. I. (1991), Determination of γ-glutamyl conjugates of monoamines by means of high-performance liquid chromatography with electrochemical detection and application to gastropod tissues, J. Chromatog. 567: 49-56. The rest of the brain was frozen on dry ice for ex vivo examination of MAO activity as described earlier.

[6] = target: T1, rat brain monoamine oxidase-A (Rattus norvegicus, UniProt P21396); assay: Monoamine oxidase-A inhibiting activity in vitro (radiochemical, 5-hydroxytryptamine substrate, rat brain homogenate); assay type: biochemical; settings: for inhibition at 100 µM: 1 × 10^-4 M; for inhibition at 10 µM: 1 × 10^-5 M; for inhibition at 1 µM: 1 × 10^-6 M; for inhibition at 0.1 µM: 1 × 10^-7 M; for inhibition at 0.01 µM: 1 × 10^-8 M
T1 construct: appropriately diluted homogenates of rat brain or liver; from tissue; host or cells: rat brain or liver homogenate
T1 sequence (P21396 1-526): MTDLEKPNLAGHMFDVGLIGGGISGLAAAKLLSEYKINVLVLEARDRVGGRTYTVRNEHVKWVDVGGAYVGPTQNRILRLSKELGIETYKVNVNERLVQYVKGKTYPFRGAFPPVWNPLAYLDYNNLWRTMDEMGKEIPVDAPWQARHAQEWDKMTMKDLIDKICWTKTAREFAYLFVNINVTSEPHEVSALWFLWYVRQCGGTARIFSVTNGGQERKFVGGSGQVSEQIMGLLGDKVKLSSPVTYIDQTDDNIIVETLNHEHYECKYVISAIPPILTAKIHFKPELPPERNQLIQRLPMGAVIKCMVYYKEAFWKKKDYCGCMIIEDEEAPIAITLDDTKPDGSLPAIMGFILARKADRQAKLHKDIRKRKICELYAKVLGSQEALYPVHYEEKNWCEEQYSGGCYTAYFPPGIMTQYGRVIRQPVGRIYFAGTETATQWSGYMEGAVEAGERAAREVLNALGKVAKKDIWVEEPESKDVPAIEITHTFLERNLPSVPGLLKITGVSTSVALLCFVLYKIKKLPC
Experimental: Radiolabelled 5-hydroxytryptamine was used as the substrate for monoamine oxidase-A. Various concentrations of the compounds were incubated in appropriately diluted homogenates of rat brain or liver in a 0.2 M potassium phosphate buffer. Incubations proceeded at 37° C. for 10 minutes. Incubation was terminated by the addition of acid and the radiolabelled product (5-hydroxyindoleacetic acid) was extracted and quantified by liquid scintillation counting procedures. Incubations were done in triplicate and incubations containing phenelzine were included for comparison. The percent inhibition of monoamine oxidase-A activity compared to controls without the compounds of the present invention was calculated.

[7] = target: T2, rat brain monoamine oxidase-B (Rattus norvegicus, UniProt P19643); assay: Monoamine oxidase-B inhibiting activity in vitro (radiochemical, β-phenylethylamine substrate, rat brain homogenate); assay type: biochemical; settings: for inhibition at 100 µM: 1 × 10^-4 M; for inhibition at 10 µM: 1 × 10^-5 M; for inhibition at 1 µM: 1 × 10^-6 M; for inhibition at 0.1 µM: 1 × 10^-7 M; for inhibition at 0.01 µM: 1 × 10^-8 M
T2 construct: appropriately diluted homogenates of rat brain or liver; from tissue; host or cells: rat brain or liver homogenate
T2 sequence (P19643 1-520): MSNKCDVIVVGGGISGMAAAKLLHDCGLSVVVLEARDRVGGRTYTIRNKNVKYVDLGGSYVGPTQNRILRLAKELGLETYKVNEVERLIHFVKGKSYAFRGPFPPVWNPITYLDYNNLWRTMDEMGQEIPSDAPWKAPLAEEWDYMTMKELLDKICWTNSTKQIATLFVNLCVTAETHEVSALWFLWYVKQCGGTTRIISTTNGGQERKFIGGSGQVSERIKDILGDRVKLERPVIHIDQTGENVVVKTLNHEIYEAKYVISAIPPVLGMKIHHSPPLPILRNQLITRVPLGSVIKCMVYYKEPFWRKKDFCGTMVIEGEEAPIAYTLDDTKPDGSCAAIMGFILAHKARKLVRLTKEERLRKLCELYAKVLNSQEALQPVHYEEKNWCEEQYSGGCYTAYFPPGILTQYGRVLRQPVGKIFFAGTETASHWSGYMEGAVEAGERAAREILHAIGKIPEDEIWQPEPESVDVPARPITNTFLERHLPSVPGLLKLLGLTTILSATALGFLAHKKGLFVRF
Experimental: Radiolabelled β-phenylethylamine was employed as a substrate for monoamine oxidase-B. Various concentrations of the compounds of interest were incubated in appropriately diluted homogenates of rat brain or liver in a 0.2 M potassium phosphate buffer. Incubations proceeded at 37° C. for 10 minutes. Incubation was terminated by the addition of acid and the radiolabelled product (phenylacetaldehyde and phenylacetic acid) was extracted and quantified by liquid scintillation counting procedures. Incubations were done in triplicate and incubations containing phenelzine were included for comparison. The percent inhibition of monoamine oxidase-B activity compared to controls containing no drug was calculated.

[8] = system: PC12 cells; assay: PC12 neurite outgrowth (neurotrophic effect); assay type: cell-based; settings: for Index of Neurite Outgrowth: seven days
Experimental: The effects of CVT-P040 on neurite outgrowth in cell culture were investigated using an established PC 12 pheochromocytoma cell culture. The effects of CVT-P040 and nerve growth factor on neurite outgrowth were estimated using the method described by Rydel, R. E and Greene, L. A.(1987), Acidic and basic fibroblast growth factors promote stable neurite outgrowth and basic neuronal differentiation in cultures of PC12 cells, J. Neuroscience 7: 3639-3653. Briefly, PC12 cells were seeded and maintained in 100 cm^2 tissue culture dishes at 37° C. in RPMI1640 media containing 1% antibiotics, 10% heat inactivated horse serum and 5% fetal bovine serum in a water saturated atmosphere of 95% air and 5% CO2. The cells were mechanically dislodged and plated into 35 mm collagen-coated tissue culture dishes containing a total of 2.0 ml complete medium at a density of […]. The medium was changed 3 times/week. Cellular responses to CVT-P040 and nerve growth factor (NGF) were determined by counting the number of PC12 cells containing processes. Photographs of the cells were taken after seven days treatment. Two cell fields were chosen in each dish and the photographs developed and printed. […] The neurite index was calculated using the following formula; Neurite Index=total neurite score (ΣS)/ total cell number (ΣN); ΣS=S1×N+S2×N +S3×N+S4×N, where N is the number of cells in each cell field.

[9] = 10 mg/kg i.p. then DSP-4 50 mg/kg, 20% DMSO control experiment

C#CCN(C)[C@H](C)Cc1ccccc1 [(-)-deprenyl, reference compound]
% Inhibition Monoamine Oxidase-A ([1]; brain): -0.6 ± 1.1% | % Inhibition Monoamine Oxidase-A ([1]; liver): 8.0 ± 2.2% | % NA Restoration [2, 9]: 86.6% | NA [2, 9]: 315 ± 34 ng/g | protection against DSP-4 induced noradrenaline depletion / neuroprotective effect ([2]; 10 mg/kg, mouse hippocampus, in words): significantly protected against DSP-4 induced noradrenaline depletion | MAO-A % Inhibition [3, 9]: 18.8 ± 6.0% | MAO-A % Inhibition ([3]; 10 mg/kg then DSP-4 50 mg/kg, saline control experiment): 9.9 ± 6.0% | % NA Restoration [4]: 73.1% | NA [4]: 432 ± 13 ng/g | 5-HIAA [5]: 407 ± 22 ng/g | 5-HT [5]: 821 ± 44 ng/g | DA [5]: 541 ± 44 ng/g | DOPAC [5]: 87 ng/g | NA [5]: 1510 ± 70 ng/g

C#CCNNCCc1ccccc1 [CVT-P039, N^2 -propargylphenelzine]
inhibition at 100 µM [6]: 31.6% | inhibition at 10 µM [6]: -25.8% | inhibition at 100 µM [7]: 20.9% | inhibition at 10 µM [7]: -0.2%

C#CCN(N)Cc1ccccc1 [CVT-P046, N^1 -propargylbenzylhydrazine]
inhibition at 100 µM [6]: 100% | inhibition at 10 µM [6]: 99.4% | inhibition at 1 µM [6]: 49.4% | inhibition at 0.1 µM [6]: 18.5% | inhibition at 0.01 µM [6]: -5% | inhibition at 100 µM [7]: 100% | inhibition at 10 µM [7]: 92.3% | inhibition at 1 µM [7]: 86.2% | inhibition at 0.1 µM [7]: 64.9% | inhibition at 0.01 µM [7]: 18.6%

C#CCN(N)c1ccccc1 [CVT-P047, N^1 -propargylphenylhydrazine]
inhibition at 100 µM [6]: 99.7% | inhibition at 10 µM [6]: 78.2% | inhibition at 1 µM [6]: 15.9% | inhibition at 0.1 µM [6]: -3.8% | inhibition at 0.01 µM [6]: -2.9% | inhibition at 100 µM [7]: 100% | inhibition at 10 µM [7]: 94.3% | inhibition at 1 µM [7]: 65.1% | inhibition at 0.1 µM [7]: 17.9% | inhibition at 0.01 µM [7]: 0.1%

NGF: nerve growth factor (NGF)
Index of Neurite Outgrowth ([8]; NGF 0.1 ng/ml): 0.58 ± 0.03 | Index of Neurite Outgrowth ([8]; NGF 0.3 ng/ml): 0.79 ± 0.07 | Index of Neurite Outgrowth ([8]; NGF 1.0 ng/ml): 1.16 ± 0.06 | neurite outgrowth in PC12 cells ([8]; NGF 0.1, 0.3 and 1.0 ng/ml, in words): increased neurite outgrowth in PC12 cells

— patent publication US6060516A, “N^1 -propargylhydrazines, N^2 -propargylhydrazines and their analogs for the treatment of depression, anxiety and neurodegeneration” (CV Technologies, Inc., priority 1998, dated 2000)
